A short description of data set [1]: Lipophilicity, log P of the compound. The class given is physicochemical. The settings on record: octanol/water.
A further data set concerns Mollusca. The data set is described as follows: Increase in mollusk membrane potential assessed as concentration required to raise 20 mV. It is filed as functional, cell membranes.
For the next data set, the system named is Escherichia coli. Description: Antimicrobial activity against Escherichia coli. It is filed as functional.
For data set [2], the target named is Alcohol dehydrogenase (Homo sapiens) (UniProt P07327+P08319+P00325+P00326+P40394+P11766+P28332). Description: Binding affinity to alcohol dehydrogenase (unknown origin). The class given is protein assay.

Structures are written as SMILES.

Data on six molecules can be found in ChEMBL document CHEMBL3272026, “On the structure of medicinal chemistry” (J Med Chem, 1976).

Regarding `Cc1cccc(Nc2ccccc2C(=O)O)c1C` [MEFENAMIC ACID], the logP in data set [1] (read-out: logP) is 0.28. In the data set on Mollusca, the log(1/C) was determined as 3.48.

Regarding `Nc1ccc(S(=O)(=O)Nc2ccc(Cl)cc2)cc1`, the “log(1/C)” value with Escherichia coli was 4.8.

As to `CCOc1cccc(NS(=O)(=O)c2ccc(N)cc2)c1`, in the data set on Escherichia coli, the “log(1/C)” value was found to be 4.88.

Take `NC(=O)c1ccc([N+](=O)[O-])cc1`: in data set [2], the log(1/K) was -2.6.

The molecule `NC(=O)c1ccc(F)cc1` gave a log(1/K) in data set [2] of -2.6.

Consider `O=C(O)c1cc(Cl)cc(Cl)c1O`, for which the logP in data set [1] is 0.23. In addition, the log(1/C) in the data set with Mollusca was determined as 3.48.
